Source: publication PMC10879537 (Nature Communications, 2024)
“And” between values parts separate entries of the source, which are not always exact repeats. Equal values may be shown once. Read-outs that look alike come from different tables or passages of the source.

Tests used:
GX_P2V [1] = test: microbe, parasite or virus in culture; format: cell-based, Guangxi pangolin-CoV (GX_P2V)
SARS-CoV-2 trVLP [2] = test: microbe, parasite or virus in culture
GX_P2V [3] = test: organism not typed; format: cell-based, Guangxi pangolin-CoV (GX_P2V)
[4] = tested on: SARS-CoV-2 pseudotyped virus; test: microbe, parasite or virus in culture; format: cell-based
SARS-CoV-2 trVLP [5] = format: cell-based
SARS-CoV-2 trVLP [6] = tested on: SARS-CoV-2 trVLP
[7] = tested on: SARS-CoV-2 live virus (SARS-CoV-2/WH-09/human/2020/CHN); test: microbe, parasite or virus in culture; format: cell-based; details: read-out: SARS-CoV-2 (Vero E6) EC50
[8] = tested on: SARS-CoV pseudotyped virus; test: microbe, parasite or virus in culture; format: cell-based; details: for EC50: read-out: EC50 against SARS-CoV pseudotyped virus
[9] = tested on: SADS-CoV strain CN/GDWT/2017; test: cells; format: cell-based, swine acute diarrhoea syndrome coronavirus (SADS-CoV)
[10] = tested on: MERS-CoV pseudotyped virus; test: microbe, parasite or virus in culture; format: cell-based
PEDV strain CV777 = test: microbe, parasite or virus in culture; format: cell-based, porcine epidemic diarrhea virus (PEDV)
in vitro [11] = details: human
in vitro [12] = details: human, Caco-2
in vitro [13] = details: African green monkey
Vero E6 cells = test: cells; details: Chlorocebus sabaeus, Vero C1008, 48 h, read-out: Cytoxicity (%)
[14] = Vero C1008, 48 h, read-out: Percentage of Inhibition (%)

Which results are given for `COc1ccc(C[C@@H]2c3cc(Oc4cc(C[C@@H]5c6cc(OC)c(OC)cc6CCN5C)ccc4O)c(OC)cc3CCN2C)cc1` [Neferine (33), Neferine]?
inhibition at 0.193 µM (GX_P2V [1]; [14]): 92.5%; inhibition at 0.495 µM (GX_P2V [1]; [14]): 91.2%; inhibition at 0.796 µM (GX_P2V [1]; [14]): 91.6%; inhibition at 1.097 µM (GX_P2V [1]; [14]): 100%; inhibition at 1.398 µM (GX_P2V [1]; [14]): 100%; inhibition at 1.699 µM (GX_P2V [1]; [14]): 100%; EC50 (GX_P2V [1]; Vero C1008, read-out: EC50 against GX_P2V): 0.98 µM; EC50 (SARS-CoV-2 trVLP [2]; Severe acute respiratory syndrome coronavirus 2, read-out: EC50 against SARS-CoV-2 trVLP): 6.24 µM

With `COc1cc2c3cc1Oc1cc(ccc1O)C[C@@H]1c4c(cc(OC)c(O)c4Oc4ccc(cc4)C[C@H]3N(C)CC2)CCN1C` [L-curine] as the compound, how does the inhibition at 0.49485 µM (GX_P2V [1]; [14]) read?
The inhibition at 0.49485 µM was 81.4%.

For isotetrandrine, which “Time of addition of anti-GX_P2V activity, Entry” value (GX_P2V [3]) is on record?
The value was 64.671 and 52.909 and 54.392.

And the “Time of addition of anti-GX_P2V activity, Full-time” value (GX_P2V [3])?
The value was 95.271 and 94.111 and 93.848.

And the “Time of addition of anti-GX_P2V activity, Post-entry” value (GX_P2V [3])?
The value was 79.054 and 80.217 and 78.230.

What about the “Percentage of Inhibition (%)” value (GX_P2V [1]) of the same compound?
Its value is 100%.

And the EC50 (GX_P2V [1]; read-out: EC50 GX_P2V)?
The EC50 was 7.43 µM.

What about the EC50 ([4]; read-out: EC50 SARS-CoV-2pseudotypedvirus) of the same compound?
The EC50 was 7.32 µM.

What about the “Time of addition of anti-SARS-CoV-2 trVLPs activity, Full-time” value (SARS-CoV-2 trVLP [5]) of the same compound?
Its value is 69.205 and 66.812 and 64.054.

What about the “Time of addition of anti-SARS-CoV-2 trVLPs activity, Post-entry” value (SARS-CoV-2 trVLP [5]) of the same compound?
Its value is 57.048 and 54.613 and 56.353.

And the EC50 (SARS-CoV-2 trVLP [6]; read-out: EC50 SARS-CoV-2 trVLP)?
The EC50 was 2.82 µM.

What about the EC50 [7] of the same compound?
The EC50 was 4.47 µM.

What about the “Percentage of Inhibition (%)” value [8] of the same compound?
Its value is 83.000% and 63.000%.

What about the EC50 [8] of the same compound?
Its EC50 is 4.77 µM.

And the EC50 ([9]; read-out: EC50 against SADS-CoV)?
The EC50 was 3.67 µM.

And the EC50 ([10]; read-out: EC50 against MERS-CoV pseudotyped virus)?
Its EC50 is 3.31 µM.

What about the EC50 (PEDV strain CV777; read-out: EC50 against PEDV) of the same compound?
Its EC50 is 1.67 µM.

With `COc1cc2c(cc1O)[C@@H](Cc1ccc(Oc3cc(C[C@@H]4c5cc(O)c(OC)cc5CCN4C)ccc3O)cc1)N(C)CC2` [Compound 32, guatteguamerine] as the compound, how does the “Antiviral activity (bioactivity) in dose-response analysis” value (GX_P2V [1]) read?
The value was “lacked antiviral activity”.

What does the source list for `COc1cc2c(cc1OC)[C@@H](Cc1ccc(Oc3cc(C[C@@H]4c5cc(OC)c(OC)cc5CCN4C)ccc3O)cc1)N(C)CC2` [Dauricine, dauricine]?
Stage of the viral life cycle affected (time-of-addition) (GX_P2V [3]): superior inhibitory activity during the entry stage compared with the post-entry stage; Time of addition of anti-GX_P2V activity, Full-time (GX_P2V [3]): 94.280 and 92.940 and 93.040; Time of addition of anti-GX_P2V activity, Post-entry (GX_P2V [3]): 24.420 and 36.380 and 19.300; inhibition at 6.25 µM (GX_P2V [3]; Vero C1008, read-out: Inhibition against GX_P2V, full-time treatment): ~100%; inhibition at 1.09691 µM (GX_P2V [1]; [14]): 10.1%; inhibition at 1.39794 µM (GX_P2V [1]; [14]): 95.2%; inhibition at 1.69897 µM (GX_P2V [1]; [14]): 100%; EC50 (GX_P2V [1]; Vero C1008, read-out: EC50 GX_P2V): 15.7 µM; EC50 (GX_P2V [1]; Vero C1008, read-out: EC50 against GX_P2V, repeated experiment): 13.1 µM; EC50 ([4]; Severe acute respiratory syndrome coronavirus 2, read-out: EC50 SARS-CoV-2pseudotypedvirus): 6.58 µM; Time of addition of anti-SARS-CoV-2 trVLPs activity, Entry (SARS-CoV-2 trVLP [5]): 75.941 and 76.217 and 74.799; Time of addition of anti-SARS-CoV-2 trVLPs activity, Full-time (SARS-CoV-2 trVLP [5]): 87.622 and 86.812 and 85.889; Time of addition of anti-SARS-CoV-2 trVLPs activity, Post-entry (SARS-CoV-2 trVLP [5]): 74.686 and 90.971 and 75.807; CC50 at 48 h (in vitro [11]): > 25 µM; CC50 (in vitro [11]; CC50, cytotoxicity to Huh 7 cells (Fig. 4B, SADS-CoV panel)): > 12.5 µM; SI (SARS-CoV-2 trVLP, Caco 2-N) (SARS-CoV-2 trVLP [6]; Caco-2): > 17.61; EC50 ([8]; Severe acute respiratory syndrome coronavirus): 2.63 µM; CC50 at 48 h (in vitro [12]): > 50 µM; CC50 at 48 h (in vitro [13]): > 50 µM; EC50 (SARS-CoV-2 trVLP [2]; Severe acute respiratory syndrome coronavirus 2, read-out: EC50 SARS-CoV-2 trVLP): 2.84 µM; Percentage of Inhibition (%) [9]: 99.922%; EC50 ([9]; Huh-7, read-out: EC50 against SADS-CoV): 0.84 µM; EC50 ([10]; Middle East respiratory syndrome-related coronavirus, Huh-7, read-out: EC50 against MERS-CoV pseudotyped virus): 2.13 µM; Percentage of Inhibition (%) (PEDV strain CV777): 99.987%; EC50 (PEDV strain CV777; Porcine epidemic diarrhea virus, Huh-7, read-out: EC50 against PEDV): 1.7 µM

For `NCCc1ccc(O)c(O)c1` [Compound 4, dopamine, reference compound], which “Antiviral activity (bioactivity) in dose-response analysis” value (GX_P2V [1]) is on record?
The value was “do not”.

What about the inhibition at 0.193125 µM (GX_P2V [1]; [14]) of the same compound?
Its inhibition at 0.193125 µM is 46.7%.

What about the inhibition at 0.39 µM (GX_P2V [1]; [14]) of the same compound?
The inhibition at 0.39 µM was 33.8%.

What about the inhibition at 0.49485 µM (GX_P2V [1]; [14]) of the same compound?
The inhibition at 0.49485 µM was 92.6%.

What about the inhibition at 0.79588 µM (GX_P2V [1]; [14]) of the same compound?
The inhibition at 0.79588 µM was 41.1%.

And the cytotoxicity at 0.49485 µM (Vero E6 cells)?
The cytotoxicity at 0.49485 µM was 23.1%.

And the cytotoxicity at 0.78 µM (Vero E6 cells)?
Its cytotoxicity at 0.78 µM is 31.1%.

What about the cytotoxicity at 1.69897 µM (Vero E6 cells) of the same compound?
The cytotoxicity at 1.69897 µM was 10.6%.

With `COc1ccc2c(c1O)-c1c(O)c(OC)cc3c1[C@H](C2)[N+](C)(C)CC3` [Magnoflorine] as the compound, how does the inhibition at 0.79588 µM (GX_P2V [1]; [14]) read?
Its inhibition at 0.79588 µM is 34.7%.

And the cytotoxicity at 0.193125 µM (Vero E6 cells)?
The cytotoxicity at 0.193125 µM was 3.29%.

What about the cytotoxicity at 0.39 µM (Vero E6 cells) of the same compound?
The cytotoxicity at 0.39 µM was 1.03%.

And the cytotoxicity at 0.49485 µM (Vero E6 cells)?
The cytotoxicity at 0.49485 µM was 8.84%.

And the cytotoxicity at 0.79588 µM (Vero E6 cells)?
Its cytotoxicity at 0.79588 µM is 10.2%.

And the cytotoxicity at 1.09691 µM (Vero E6 cells)?
Its cytotoxicity at 1.09691 µM is 12.2%.

And the cytotoxicity at 1.39794 µM (Vero E6 cells)?
Its cytotoxicity at 1.39794 µM is 15.3%.

And the cytotoxicity at 1.69897 µM (Vero E6 cells)?
Its cytotoxicity at 1.69897 µM is 14.6%.

With `Oc1ccc(C[C@@H]2NCCc3cc(O)c(O)cc32)cc1` [Compound 6, norcoclaurine] as the compound, how does the inhibition at 0.39 µM (GX_P2V [1]; [14]) read?
Its inhibition at 0.39 µM is 55.7%.

And the inhibition at 0.78 µM (GX_P2V [1]; [14])?
Its inhibition at 0.78 µM is 83.5%.

What about the inhibition at 0.79588 µM (GX_P2V [1]; [14]) of the same compound?
Its inhibition at 0.79588 µM is 68.5%.

And the cytotoxicity at 0.193125 µM (Vero E6 cells)?
The cytotoxicity at 0.193125 µM was 41.2%.

What about the cytotoxicity at 0.39 µM (Vero E6 cells) of the same compound?
Its cytotoxicity at 0.39 µM is 28.8%.

What about the cytotoxicity at 0.49485 µM (Vero E6 cells) of the same compound?
Its cytotoxicity at 0.49485 µM is 9.98%.

What about the cytotoxicity at 0.79588 µM (Vero E6 cells) of the same compound?
The cytotoxicity at 0.79588 µM was 52.9%.

And the cytotoxicity at 1.09691 µM (Vero E6 cells)?
The cytotoxicity at 1.09691 µM was 10.9%.

Which “Percentage of Inhibition (%)” value (GX_P2V [1]) does the source give for `COc1cc(C[C@H]2c3cc(OC)c(OC)c(OC)c3CCN2C)c(Oc2cc3c(cc2OC)-c2c(OC)c(OC)c(OC)c4c2[C@H](C3)N(C)CC4)cc1OC` [Methoxyadiantifoline (37), methoxyadiantifoline] here?
Its value is 100.000%.

With `COc1ccc2cc3[n+](cc2c1OC)CCc1cc2c(cc1-3)OCO2` [berberine (2), berberine, reference compound] as the compound, how does the inhibition at 0.49485 µM (GX_P2V [1]; [14]) read?
The inhibition at 0.49485 µM was 52.1%.

What about the cytotoxicity at 0.193125 µM (Vero E6 cells) of the same compound?
The cytotoxicity at 0.193125 µM was 7.94%.

And the cytotoxicity at 0.49485 µM (Vero E6 cells)?
Its cytotoxicity at 0.49485 µM is 11.2%.
